In brackets after ≈: the same amount, converted by molar mass. Read-outs that look alike come from different tables or passages of the source.
Key:
[1] = Plasma protein binding assay (rapid equilibrium dialysis); format: in vitro ADME
In short: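 Plasma was spiked to 10,000 ng/mL compound and dialysed against PBS by rapid equilibrium dialysis for 4 h at 37° C with shaking at 300 RPM. Plasma and buffer aliquots were matrix-matched 1:1 […] and quantified by LC-MS/MS.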

Δarr M. abscessus = test: MIC assay, isogenic arr-deleted strain; format: cell-based, Mycobacterium abscessus; conditions: Table 10
In short: (§1)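 Two-fold, ten-point dilutions in 7H9 with 2% DMSO; mid-log culture diluted to OD600=0.1 (1×10^7 CFU/mL). Incubated 3 days at 37 °C, shaking 110 RPM; growth = Day 3 minus Day 0 OD600, expressed as percentage of drug-free growth and plotted against concentration. Two biological replicates.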

Mycobacterium abscessus = test: MIC against Mycobacterium abscessus (strain not given); format: cell-based
M. abscessus ATCC 19977 = test: MIC assay in 96-well plate format, wild-type strain; format: cell-based, Mycobacterium abscessus; conditions: for MICWT: Table 10; for MIC: Mycobacteroides abscessus, ATCC19977
In short: as §1

[2] = Mouse pharmacokinetics studies; format: in vivo, CD-1 mice; conditions: mouse, in vivo
Method: Blood was captured in CB300 blood collection tubes containing K2EDTA and stored on ice. Plasma was recovered after centrifugation and stored at −80° C. until analyzed by high pressure liquid chromatography coupled to tandem mass spectrometry (LC-MS/MS). Pharmacokinetic parameters were calculated using non-compartmental pharmacokinetic analysis. […] Extracts were vortexed for 5 minutes and centrifuged at 4000 RPM for 5 minutes. 75 μL of supernatant was transferred for LC-MS/MS analysis and diluted with 75 μL of Milli-Q deionized water. Rifabutin was purchased from Carbosynth. C25-desacetyl rifabutin and rifabutin-d7 were purchased from Toronto Research Chemical. Verapamil was purchased from Sigma-Aldrich. […] Multiple-reaction monitoring of parent/daughter transitions in electrospray positive-ionization mode was used to quantify all analytes. […] Data processing was performed using Analyst software (version 1.6.2; Applied Biosystems Sciex).

CYP3A4 = conditions: human, 10 μM
Method: The threshold cycle (CT) was measured for each isoform cDNA by real time qRT-PCR. The mRNA level of each isoform was assessed by the relative quantifiation with reference gene (GAPDH) as the normalizer method. The normalized fold induction was calculated by 2^−ΔΔCT method, in which 0.1% DMSO was used as the reference (vehicle control). The induction potential of each test compound was analyzed by comparing its fold induction to a pre-determined cutoff value for each lot of hepatocytes. The hepatocytes lots used in this study were validated using 10 known inducers and 5 known non-inducers for each isozyme. A cutoff value is determined based on the validation study for each hepatocytes lot.

[3] = Mycobacteroides abscessus, 72 h, Table 22, read-out: MICMab
[4] = Mycobacterium abscessus ATCC 19977, Table 11, read-out: MIC

| SMILES | ƒu [1] [%] | plasma unbound fraction [1] [%] | MICΔorr (Δarr M. abscessus) [µM] | MIC (Mycobacterium abscessus; Table 13, read-out: Mab MIC) [µM] | MICWT (M. abscessus ATCC 19977) [µM] | MIC (Mycobacterium abscessus; [3]) [µM] | CYP3A4 gene fold-induction at 10 μM (CYP3A4) | further results |
| --- | --- | --- | --- | --- | --- | --- | --- | --- |
| CO[C@H]1/C=C/O[C@@]2(C)Oc3c(C)c(O)c4c(c3C2=O)C2=NC3(CCN(CC(C)C)CC3)NC2=C(NC(=O)/C(C)=C/C=C/[C@H](C)[C@H](O)[C@@H](C)[C@@H](O)[C@@H](C)[C@H](OC(=O)c2cnccn2)[C@@H]1C)C4=O [UMN51] | 7.0 | 6.96 | 0.027 | 0.03 (≈ 0.0273 µg/mL) | 0.03 |  |  |  |
| CO[C@H]1/C=C/O[C@@]2(C)Oc3c(C)c(O)c4c(c3C2=O)C2=NC3(CCN(CC(C)C)CC3)NC2=C(NC(=O)/C(C)=C/C=C/[C@H](C)[C@H](O)[C@@H](C)[C@@H](O)[C@@H](C)[C@H](OC(=O)C2CCC2)[C@@H]1C)C4=O [UMN80] | 0.3 | 0.29 | 0.026 | 1.2 (≈ 1.06 µg/mL) | 1.2 |  |  |  |
| CO[C@H]1/C=C/O[C@@]2(C)Oc3c(C)c(O)c4c(c3C2=O)C2=NC3(CCN(CC(C)C)CC3)NC2=C(NC(=O)/C(C)=C/C=C/[C@H](C)[C@H](O)[C@@H](C)[C@@H](O)[C@@H](C)[C@H](OC(=O)C2CCCC2)[C@@H]1C)C4=O [UMN81] | 0.05 | 0.05 | 0.03 | 1.2 (≈ 1.08 µg/mL) | 1.2 |  |  |  |
| CO[C@H]1/C=C/O[C@@]2(C)Oc3c(C)c(O)c4c(c3C2=O)C2=NC3(CCN(CC(C)C)CC3)NC2=C(NC(=O)/C(C)=C/C=C/[C@H](C)[C@H](O)[C@@H](C)[C@@H](O)[C@@H](C)[C@H](OC(=O)C2CCCCC2)[C@@H]1C)C4=O [UMN82] | 0.03 | 0.03 | 0.05 | 1.1 (≈ 1.01 µg/mL) | 0.54 |  |  |  |
| CO[C@H]1/C=C/O[C@@]2(C)Oc3c(C)c(O)c4c(c3C2=O)C2=NC3(CCN(CC(C)C)CC3)NC2=C(NC(=O)/C(C)=C/C=C/[C@H](C)[C@H](O)[C@@H](C)[C@@H](O)[C@@H](C)[C@H](OC(=O)c2cscn2)[C@@H]1C)C4=O [UMN94] | 2.9 |  |  | 0.036 (≈ 0.033 µg/mL) |  |  |  | CL [2]: 5.0 mL/min/kg; F [2]: 77%; Vd [2]: 1.22 L/kg; ƒAUC/MIC [2]: 22.4; AUCp.o. ([2]; po): 25765 ng·h/mL |
| CO[C@H]1/C=C/O[C@@]2(C)Oc3c(C)c(O)c4c(c3C2=O)C2=NC3(CCN(CC(C)C)CC3)NC2=C(NC(=O)/C(C)=C/C=C/[C@H](C)[C@H](O)[C@@H](C)[C@@H](O)[C@@H](C)[C@H](OC(=O)Nc2ccncn2)[C@@H]1C)C4=O [UMN118] |  |  |  |  |  | 0.032 (≈ 0.0296 µg/mL) | 2.0 | ƒu ([1]; 4 h, 10000 ng/mL): 5.1%; MIC (M. abscessus ATCC 19977; Table 15, heterocyclic aromatic carbamates, read-out: WT Mab MIC): 0.032 µM (≈ 0.0296 µg/mL) |
| CO[C@H]1/C=C/O[C@@]2(C)Oc3c(C)c(O)c4c(c3C2=O)C2=NC3(CCN(CC(C)C)CC3)NC2=C(NC(=O)/C(C)=C/C=C/[C@H](C)[C@H](O)[C@@H](C)[C@@H](O)[C@@H](C)[C@H](OC(=O)Nc2cccnn2)[C@@H]1C)C4=O [UMN121] |  |  |  |  |  | 0.038 (≈ 0.0352 µg/mL) | 2.7 | MIC (M. abscessus ATCC 19977; [4]): 0.038 µM (≈ 0.0352 µg/mL) |
| CO[C@H]1/C=C/O[C@@]2(C)Oc3c(C)c(O)c4c(c3C2=O)C2=NC3(CCN(CC(C)C)CC3)NC2=C(NC(=O)/C(C)=C/C=C/[C@H](C)[C@H](O)[C@@H](C)[C@@H](O)[C@@H](C)[C@H](OC(=O)Nc2ccn3nccc3c2)[C@@H]1C)C4=O [UMN123] |  |  |  |  |  | 0.051 (≈ 0.0492 µg/mL) | 1.2 |  |
| CO[C@H]1/C=C/O[C@@]2(C)Oc3c(C)c(O)c4c(c3C2=O)C2=NC3(CCN(CC(C)C)CC3)NC2=C(NC(=O)/C(C)=C/C=C/[C@H](C)[C@H](O)[C@@H](C)[C@@H](O)[C@@H](C)[C@H](OC(=O)Nc2cccn3ccnc23)[C@@H]1C)C4=O [UMN125] |  |  |  |  |  | 0.03 (≈ 0.0289 µg/mL) | 3.6 |  |
| CO[C@H]1/C=C/O[C@@]2(C)Oc3c(C)c(O)c4c(c3C2=O)C2=NC3(CCN(CC(C)C)CC3)NC2=C(NC(=O)/C(C)=C/C=C/[C@H](C)[C@H](O)[C@@H](C)[C@@H](O)[C@@H](C)[C@H](OC(=O)Nc2c(C)nc3ccccn23)[C@@H]1C)C4=O [UMN131] |  |  |  |  |  | 0.049 (≈ 0.0479 µg/mL) | 3.0 | MIC (M. abscessus ATCC 19977; [4]): 0.049 µM (≈ 0.0479 µg/mL) |
